This is an account of results in US7045665B2, “Glucopyranosyloxybenzylbenzene derivatives, medicinal compositions containing the same and intermediates for the preparation of the derivatives” (Kissei Pharmaceutical Co., Ltd., priority 2000, dated 2006).

Structures are written as SMILES.

Data set [1] addresses T1, human SGLT2 (Homo sapiens, UniProt P31639, I433V).
T1 construct: expressed in transfected cells; host or cells: COS-7 cells (RIKEN CELL BANK RCB0539), transient, electroporation
T1 sequence (P31639 1-672 I433V): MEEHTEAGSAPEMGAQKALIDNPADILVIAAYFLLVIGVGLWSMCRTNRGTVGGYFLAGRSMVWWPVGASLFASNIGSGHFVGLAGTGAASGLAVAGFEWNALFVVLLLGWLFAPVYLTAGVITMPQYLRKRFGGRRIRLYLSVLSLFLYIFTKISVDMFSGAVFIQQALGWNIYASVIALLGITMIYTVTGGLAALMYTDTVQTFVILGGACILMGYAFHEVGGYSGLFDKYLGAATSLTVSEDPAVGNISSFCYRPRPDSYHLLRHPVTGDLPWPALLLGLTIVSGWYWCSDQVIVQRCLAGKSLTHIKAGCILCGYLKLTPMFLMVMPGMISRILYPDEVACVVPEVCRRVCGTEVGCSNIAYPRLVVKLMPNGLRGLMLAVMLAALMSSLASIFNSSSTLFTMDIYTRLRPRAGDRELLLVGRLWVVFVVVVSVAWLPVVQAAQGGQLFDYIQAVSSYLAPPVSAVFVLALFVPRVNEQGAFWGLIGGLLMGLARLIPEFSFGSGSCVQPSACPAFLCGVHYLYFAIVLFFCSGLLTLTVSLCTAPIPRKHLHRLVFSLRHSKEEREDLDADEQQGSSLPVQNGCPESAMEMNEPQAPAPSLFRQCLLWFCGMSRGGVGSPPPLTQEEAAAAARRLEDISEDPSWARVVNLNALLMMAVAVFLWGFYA
Description: Assay for inhibitory effect on human SGLT2 activity (uptake of methyl-α-D-glucopyranoside). The data set is classed as cell-based. To be noted: COS-7 cells transiently expressing human SGLT2; uptake of methyl-α-D-(U-14C)glucopyranoside, 37° C., 2 hours. How it is done:
Assay for Inhibitory Effect on Human SGLT2 Activity
Preparation of the cDNA library for PCR amplification was performed by reverse transcription of a total RNA deprived from human kidney (Ori gene) with oligo dT as the primer, using […] Preamplification System (Gibco-BRL: LIFE TECHNOLOGIES). […] The amplified DNA fragment was ligated into pCR-Blunt (Invitrogen), a vector for cloning, according to standard method of the kit. […] The amplified DNA fragment was digested with restriction enzymes, Xho I and Hind III, and then purified with Wizard Purification System (Promega).
KL29, the plasmid coding human SGLT2, was transfected into COS-7 cells (RIKEN CELL BANK RCB0539) by electroporation. Electroporation was performed with GENE PULSER II (Bio-Rad Laboratories) under the condition: 0.290 kV, 975 μF, 2×10^6 cells of COS-7 cell and 20 μg of KL29 in 500 μL of OPTI-MEM I medium (Gibco-BRL: LIFE TECHNOLOGIES) in the 0.4 cm type cuvette. After the gene transfer, the cells were harvested by centrifugation and resuspended with OPTI-MEM I medium (1 mL/cuvette). To each well in 96-wells plate, 125 μL of this cell suspension was added.

Data set [2] relates to urinary glucose excretion. Description: Assay for the facilitatory effect on urinary glucose excretion. The data set is classed as in vivo. To be noted: SD rats, 1 mg/kg intravenous, oral glucose 2 g/kg; in 24 hours per 200 g of body weight. How it is done:
Assay for the Facilitatory Effect on Urinary Glucose Excretion
As experimental animal, overnight fasted SD rats (SLC., male, 7 weeks of age, 180–240 g) were used. Ten mg of test compound was suspended or dissolved in 300 μL of ethanol and then dissolved by adding of 1.2 mL of polyethylene glycol 400 and 1.5 mL of saline, and then 3.3 mg/mL solution was prepared. Three hundred μL of this solution was dissolved with 2.7 mL of the solution for dilution (saline:polyethylene glycol 400:ethanol=5:4:1) and then 0.33 mg/mL solution was prepared. After the body weights of rats were measured, the solution of test compound was intravenously injected to the tail vein at the dose of 3 mL/kg (1 mg/kg). For control, just only the solution (saline:polyethylene glycol 400:ethanol=5:4:1) was intravenously injected to the tail vein at the dose of 3 mL/kg. Immediately after intravenous injection to the tail vein, 200 g/L of glucose solution was orally administered to the rats at the dose of 10 mL/kg (2 g/kg). The intravenous injection to the tail vein was performed with 26 G injection needle and 1 mL syringe. The oral administration was performed with gastric tube for rat and 2.5 mL syringe. The head count in one group was 2 or 3. Collection of urine was performed in metabolic cage after the oral administration of glucose was finished. The sampling time for collection of urine was 24 hours after the oral administration of glucose. After the collection of urine was finished, the urine volume was recorded and the urinary glucose concentration was measured. The glucose concentration was measured with a kit for laboratory test: Glucose B-Test WAKO (Wako Pure Chemical Industries, Ltd.). The amount of urinary glucose excretion in 24 hours per 200 g of body weight was calculated from urine volume, urinary glucose concentration and body weight.

Data set [3] has as its system ICR mice. Description: Acute toxicity test. The data set is classed as in vivo. To be noted: male ICR mice, 2000 mg/kg subcutaneous, 5 animals. How it is done:
Five weeks old male ICR mice (CLEA JAPAN, INC. 29–34 g, 5 animals in each group) were fasted for 4 hours, and 666 mg/mL of a suspension which was prepared by adding saline:polyethylene glycol 400:ethanol (5:4:1) to 2-[4-(2-hydroxyethyl)benzyl]phenyl β-D-glucopyranoside (the compound described in Example 10) was subcutaneously administered at the dose of 3 mL/kg (2000 mg/kg).

As for `CCc1ccc(Cc2ccc(CO)cc2O[C@@H]2O[C@H](CO)[C@@H](O)[C@H](O)[C@H]2O)cc1` [Example 8, 2-(4-Ethylbenzyl)-5-hydroxymethylphenyl β-D-glucopyranoside], half-maximal inhibition in data set [1] (IC50) required 8.1 nM. Also, the “Amount of urinary glucose excretion” value in data set [2] is 238.9 mg.

Consider `CCCOc1ccc(Cc2ccc(CO)cc2O[C@@H]2O[C@H](CO)[C@@H](O)[C@H](O)[C@H]2O)cc1` [Example 7, 5-Hydroxymethyl-2-(4-propoxybenzyl)phenyl β-D-glucopyranoside], for which, in data set [1], the IC50 (commonly the concentration needed to halve the response being measured) came out at 140 nM. In addition, the “Amount of urinary glucose excretion” value in data set [2] was found to be 109.1 mg.

On to `OCCCc1ccc(Cc2ccccc2O[C@@H]2O[C@H](CO)[C@@H](O)[C@H](O)[C@H]2O)cc1` [Example 11, 2-[4-(3-Hydroxypropyl)benzyl]phenyl β-D-glucopyranoside], for which the IC50 in data set [1] is 75 nM.

`COc1ccc(Cc2ccccc2O[C@@H]2O[C@H](CO)[C@@H](O)[C@H](O)[C@H]2O)cc1` [Example 1, 2-(4-Methoxybenzyl)phenyl β-D-glucopyranoside]: the “Amount of urinary glucose excretion” value in data set [2] is 27.4 mg.

On to `OCCc1ccc(Cc2ccccc2O[C@@H]2O[C@H](CO)[C@@H](O)[C@H](O)[C@H]2O)cc1` [Example 10, 2-[4-(2-Hydroxyethyl)benzyl]phenyl β-D-glucopyranoside], for which, in data set [3], the “Death until 24 hours after the administration” value was “No death was observed”. For the same compound, the midpoint of inhibition in data set [1], the IC50, lay at 210 nM. Further, in data set [2], the “Amount of urinary glucose excretion” value was determined as 69.5 mg.

In data set [1], `OCCc1ccc(Cc2ccc(CO)cc2O[C@@H]2O[C@H](CO)[C@@H](O)[C@H](O)[C@H]2O)cc1` [Example 9, 2-[4-(2-Hydroxyethyl)benzyl]-5-hydroxymethylphenyl β-D-glucopyranoside] returned an IC50 of 27 nM.
